{"source": "patent US20260216109A1", "about": "“TREATMENT OF SKIN DISORDERS WITH SHORT CHAIN FATTY ACIDS” (Temple University-Of The Commonwealth System of Higher …, priority 2023, published 2026)", "key": {"IL-17A": {"test_system": "IL-17A", "assay": "Multiplex (MSD V-PLEX) cytokine release, InflammaSkin: IL-17A", "type": "cell-based, human", "conditions": "Day 7 supernatant, 0.05% Betamethasone topical, vs untreated InflammaSkin", "experimental": "A total of 16 biopsies of 15 mm diameter were produced from a single donor. Two NativeSkin® models with 12/15 mm silicon rings were produced from the biopsies according to standard procedures in place, and cultured under cell culture conditions (37° C., 5% CO2, max. humidity) for 7 days with 2 mL of standard NativeSkin® medium renewed every day. Fourteen PSO-InflammaSkin® models with 12/15 mm silicon rings were produced by inducing in situ activation and Th17/Th1 polarization of skin resident T cells with a proprietary cocktail, and cultured under cell culture conditions (37° C., 5% CO2, max. humidity) for 7 days with 2 mL of PSO-InflammaSkin® culture medium renewed every day.\nFrom Day 1 to Day 6, models were systemically treated with 1 μM Otezla or Short Chain Fatty Acids (SCFAs), or topically treated with positive control 0.05% Betamethasone\nIn these experiments, the SCFAs administered were 45 μg/mL of Ca-propionate and 1 mM mixture of salts (Ca-butyrate and Mg-butyrate).\nAt Day 7, supernatants were collected and stored at −80° C. and skin models of all conditions were carefully unmolded. […]\nHuman pro-inflammatory cytokines released in the supernatant were quantified using the V-PLEX Human IL-17A Kit (MesoScale Discovery, reference: K151RFD-1) and V-PLEX Human TNFα Kit (MesoScale Discovery, reference: K151QWD-1). […]\n(§1) Human pro-inflammatory cytokines released in the supernatant were quantified using the V-PLEX Human IL-17A Kit (MesoScale Discovery, reference: K151RFD-1) and V-PLEX Human custom Pro-inflammatory. […]\n(§2) Samples were diluted four times for plate 2 and two times for plate 1. Samples and standards were assessed in duplicate. Plates were read on MesoScale Discovery Quickpleax SQ 120 plate reader and values expressed in pg/mL.\n(§3) A statistical analysis was performed. […] First, the distribution's normality of the two compared group was assessed. […] If the two distributions were normal, the homogeneity of variances was assessed using a Fisher test on the variances. […]"}, "IFN-γ": {"test_system": "IFN-γ", "assay": "Multiplex (MSD V-PLEX) cytokine release, InflammaSkin: IFN-γ", "type": "cell-based, human", "conditions": "Example 2; Day 7 supernatant; 1 μM Otezla or SCFA (45 μg/mL Ca-propionate + 1 mM Ca-/Mg-butyrate) systemic, 0.05% Betamethasone topical; vs untreated InflammaSkin", "experimental": "(§4) A total of 16 biopsies of 15 mm diameter were produced from a single donor. Two NativeSkin® models with 12/15 mm silicon rings were produced from the biopsies according to standard procedures in place, and cultured under cell culture conditions (37° C., 5% CO2, max. humidity) for 7 days with 2 mL of standard NativeSkin® medium renewed every day. Fourteen PSO-InflammaSkin® models with 12/15 mm silicon rings were produced by inducing in situ activation and Th17/Th1 polarization of skin resident T cells with a proprietary cocktail, and cultured under cell culture conditions (37° C., 5% CO2, max. humidity) for 7 days with 2 mL of PSO-InflammaSkin® culture medium renewed every day. […]\nas §1, §2, §3"}, "IL-31": {"test_system": "IL-31", "assay": "Multiplex (MSD V-PLEX) cytokine release, InflammaSkin: IL-31", "type": "cell-based, human", "conditions": "Example 2; Day 7 supernatant; 1 μM Otezla or SCFA systemic; vs untreated InflammaSkin", "experimental": "as §4, §1, §2, §3"}, "[1]": {"test_system": "imiquimod (IMQ)-induced psoriasis model mice", "assay": "Ear skin thickness, IMQ-induced psoriasis model in mice", "type": "in vivo, mouse", "experimental": "Topical application of IMQ, a TLR7/8 ligand and potent immune activator induced and exacerbated psoriasis in mice. The mouse IMQ-induced psoriasis (IMQ Ps) model was initiated by a repeated topical application of Aldara© cream (containing 5% IMQ) over 6 consecutive days. Female Balb/c mice (9 weeks of age at reception, ordered with 20 g, Charles River, Sulzfeld, Germany; n=10 mice/group, exception healthy controls n=4) received daily a topical application of 62.5 mg of commercially available IMQ cream (5% Aldara©) on the beforehand (day −1) shaved (~2 cm×3 cm), depilated (Pilka© cream) back skin, and 7 mg on the outer right ear skin for 6 consecutive days, translating in a daily dose of approximately 3.5 mg IMQ. Healthy control mice were included in the study and were treated with vehicle cream (Vaseline; Bombastus-Werke AG) only instead of IMQ. Additionally, an IMQ disease control group was also included.\nBefore starting treatment on the day of disease induction (day 0), mice were randomized based on body weight to the respective group. […]\nThe added-up score (erythema plus scaling plus thickening), named disease severity score (scale 0-9), served then as marker for the severity of back skin inflammation. In addition, ear thickness of the right ear was determined daily by using an automatized caliper (Bayer AG, Germany).\nDisease Severity Score was evaluated on a daily base starting with the induction of psoriasis by IMQ application (day 0) until the end (day 6) of the study. The extent of ear thickness of the IMQ-treated right ear was determined daily by using an automatized caliper (Bayer AG, Germany) as described in Example 4.\nEar thickening, one of the disease severity score parameters, was evaluated in IMQ-treated mice (FIG. 60 and FIG. 61). The extent of ear thickness of the IMQ-treated right ear was determined daily by using an automatized caliper (Bayer AG, Germany) as described in Example 4."}}}
{"compound": "CCOc1cc([C@@H](CS(C)(=O)=O)N2C(=O)c3cccc(NC(C)=O)c3C2=O)ccc1OC", "note": "[Otezla, Apremilast]", "values": [{"measurement": "IL-17A levels decreased by", "setting": "IL-17A; Example 1, 1 μM Otezla or SCFA (45 μg/mL Ca-propionate + 1 mM Ca-/Mg-butyrate) systemic", "value": "about 95%"}, {"measurement": "IL-17A secretion", "setting": "IL-17A; Example 2, 1 μM Otezla or SCFA systemic", "value": "significantly reduced"}, {"measurement": "IFN-γ secretion", "setting": "IFN-γ", "value": "significantly reduced"}, {"measurement": "IL-31 secretion", "setting": "IL-31", "value": "reduced IL-31 (FIG. 10 and FIG. 17), but it was not significantly different from untreated InflammaSkin® models"}, {"measurement": "ear thickness", "setting": "[1]; Example 7, Apremilast low dose (2.5 mg/kg BID), oral, alone", "value": "did not show any inhibitory influence on ear thickness"}, {"measurement": "ear thickness", "setting": "[1]; Example 7, Apremilast mid and high dose (5 and 7 mg/kg BID), oral, alone", "value": "inhibited"}, {"measurement": "ear thickness", "setting": "[1]; Example 12, day 6, Apremilast monotherapy, both doses (12 mg/kg and 25 mg/kg BID)", "value": "did not show any inhibitory influence on ear thickness at day 6"}]}
